In US11413278B2, “Compounds and methods for promoting stress resistance” (priority 2015, dated 2022):
Entries after “also recorded” stand apart in the source; their conditions may differ. Read-outs that look alike come from different tables or passages of the source.

Experiments:
WI-38 cells = assay: CdCl2 (cadmium) resistance assay; assay type: cell-based, human; conditions: for fold induction at 10 µM: Homo sapiens, 12 h, normalized ATP measurement; for Assay 4: H2O2- & Cd-resistant / Assay 2: Cadmium-resistant: YES/NO; for Assay 2: Cadmium-resistant: * indicates partial
How it was run: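 WI-38 cells were given compounds at five final concentrations (0.25–20 μM) in triplicate, followed by cadmium or MMS for 12 h. For MMS, medium was switched from OptiMEM+10% FBS to serum-free DMEM+2% BSA when compounds were added, 24 h before stressor. Two independent assays were run, analysed by global variance t-test.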

FOXO3 = assay: qPCR analysis of FOXO3-regulated genes; assay type: cell-based, human; conditions: for fold induction at 10 µM: Homo sapiens; for K = Sestrin induction: score
How it was run: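 WI-38 cells treated with compound at 10 μM for 24 h, followed by Cells-to-Ct RT-qPCR of FOXO3 target genes normalised to B2M, PPIA and GAPDH. FOXO3 or NRF2 dependence tested by prior 10 nM siRNA knockdown (36 h transfection, compound added ~24 h after replating).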

[1] = Summary score for characterization of 38 core set hits; conditions: for D = Triple resistant: 2-point score, multiplex resistance (cadmium, MMS, H2O2); for C = H2O2- & Cd-resistant: score, resistance to both H2O2 and cadmium
Procedure: 38 “core set” small molecules are listed and are assigned a score, based on the result for each individual characterization. From our small molecule screen for H2O2-resistance, we isolated 61 top hits. […] Specifically, a 2-point score was assigned to the most well-known and prominent longevity-related phenotypes, such as multiplex resistance, activation of FOXO3 and/or NRF2, and down-regulation of mTOR. Small molecules were also analyzed for their ability to extend C. elegans' lifespan in 4 to 6 independent trials, and the lifespan score scale is from 0 to 2: 0 for no obvious effects, 1 for lifespan extension observed in 2 trials, 2 for observed in more than 2 trials. Certain molecules appeared to have DNA-damaging effects and/or potential cell-toxicity in cultured human cells, and they receive a negative point.

[2] = Exp. 1, WI-38 cells, read-out: Exp. 1, under Cd2Cl2 stress treatment, at 10 uM (fold change)
[3] = Exp. 2, WI-38 cells, read-out: Exp. 2, under Cd2Cl2 stress treatment, at 10 uM (fold change)
[4] = WI-38 cells, 10 μM, both stressors
[5] = score in summary of 38 core set hits
[6] = 24 h, Assay 10(m), at 10 uM, qPCR, read-out: Induction of FOXO3-regulated genes: DDB1 normalized fold-change
[7] = 24 h, Assay 10(m), at 10 uM, qPCR, read-out: Induction of FOXO3-regulated genes: GADD45A normalized fold-change
[8] = 24 h, Assay 10(m), at 10 uM, qPCR, read-out: Induction of FOXO3-regulated genes: SESN1 normalized fold-change
[9] = 10 μM, 24 hrs, WI-38 cells, qPCR, normalized to B2M, n = 4, read-out: CAT expression, normalized fold change (FOXO3-regulated gene)
[10] = 10 μM, 24 hrs, WI-38 cells, qPCR, normalized to B2M, n = 4, read-out: SESN1 expression, normalized fold change (FOXO3-regulated gene)
[11] = WI-38 cells, 10 μM, 24 hrs, n=4, qPCR normalized by B2M, read-out: DDB1 Normalized fold change
[12] = WI-38 cells, 10 μM, 24 hrs, n=4, qPCR normalized by B2M, read-out: GADD45A Normalized fold change
[13] = WI-38 cells, 10 μM, 24 hrs, n=4, qPCR normalized by B2M, read-out: SESN1 Normalized fold change
[14] = fold change, qPCR, WI-38 cells, 10 μM, 24 hrs, read-out: Summary of effects on FOXO3-regulated genes: CAT
[15] = fold change, qPCR, WI-38 cells, 10 μM, 24 hrs, read-out: Summary of effects on FOXO3-regulated genes: SESN1
[16] = qPCR, WI-38 cells, 10 μM, n=4, 24 hrs, normalized by B2M, read-out: CAT Normalized fold change
[17] = qPCR, WI-38 cells, 10 μM, n=4, 24 hrs, normalized by B2M, read-out: SOD2 Normalized fold change
[18] = qPCR, WI-38 cells, 10 μM, n=4, 24 hrs, normalized by B2M, read-out: TXNIP Normalized fold change
[19] = 24 h, Assay 10(m), at 10 uM, qPCR, read-out: Induction of FOXO3-regulated genes: CAT normalized fold-change

| Structure (SMILES) | CdCl2-resistant (WI-38 cells) | fold induction at 10 µM (WI-38 cells; [2]) | fold induction at 10 µM (WI-38 cells; [3]) | A = Cadmium resistant (WI-38 cells; [5]) | A = Cadmium resistant (WI-38 cells; summary score) | C = H2O2- & Cd-resistant (WI-38 cells; summary score) | E = Potential FOXO3 Activation (FOXO3; 2-point score) | fold induction at 10 µM (FOXO3; [9]) | fold induction at 10 µM (FOXO3; [11]) | fold induction at 10 µM (FOXO3; [12]) | fold induction at 10 µM (FOXO3; [13]) | fold induction at 10 µM (FOXO3; [14]) | fold induction at 10 µM (FOXO3; [16]) | fold induction at 10 µM (FOXO3; [17]) | fold induction at 10 µM (FOXO3; [18]) | K = Sestrin induction (FOXO3) | E = Potential FOXO3 Activation (FOXO3; summary score) | D = Triple resistant [1] | S = Sum of Negative scores ([1]; human) | C = H2O2- & Cd-resistant [1] | other results |
| --- | --- | --- | --- | --- | --- | --- | --- | --- | --- | --- | --- | --- | --- | --- | --- | --- | --- | --- | --- | --- | --- |
| Cc1ccc(NC(=O)c2ccc([N+](=O)[O-])o2)cc1C [Gr-1F] | YES | 6.65 | 4.8 | 1 | 1 | 1 | 0 | 1.35 | 1.37 | 1.02 | 2 | 1.35 | 1.35 | 1.68 | 1.54 | 1 | 0 | 0 | 2 | 1 | H2O2- & CdCl2-resistant (WI-38 cells): YES; CdCl2-resistant (WI-38 cells; WI-38 cells, 10 μM): YES; H2O2- & CdCl2-resistant (WI-38 cells; [4]): YES; Assay 4: H2O2- & Cd-resistant (WI-38 cells): YES; Assay 2: Cadmium-resistant (WI-38 cells): YES; fold induction at 10 µM (FOXO3; [6]): 1.12; fold induction at 10 µM (FOXO3; [7]): 0.8; fold induction at 10 µM (FOXO3; [8]): 1.64; fold induction at 10 µM (FOXO3; WI-38, 24 h, read-out: SESN1 expression): > 1.5; fold induction at 10 µM (FOXO3; [10]): 2; fold induction at 10 µM (FOXO3; [15]): 2 |
| O=C(Nc1ccc(Cl)c(Cl)c1)c1ccc([N+](=O)[O-])o1 [Gr-1G] | YES | 3.81 | 7.21 | 1 | 1 | 1 | 0 | 1.35 | 1.14 | 0.597 | 1.38 | 1.35 | 1.35 | 0.756 | 1.03 | 0 | 0 | 0 | 1 | 1 | H2O2- & CdCl2-resistant (WI-38 cells): YES; CdCl2-resistant (WI-38 cells; WI-38 cells, 10 μM): YES; H2O2- & CdCl2-resistant (WI-38 cells; [4]): YES; Assay 4: H2O2- & Cd-resistant (WI-38 cells): YES; Assay 2: Cadmium-resistant (WI-38 cells): YES; SOD2 expression, normalized fold change (FOXO3-regulated gene) (FOXO3; 10 μM, 24 hrs, WI-38 cells, qPCR, normalized to B2M, n = 4): SOD2 0.76, fold; fold induction at 10 µM (FOXO3; [19]): 1.35; fold induction at 10 µM (FOXO3; [7]): 0.6; fold induction at 10 µM (FOXO3; 24 h, Assay 10(m), at 10 uM, qPCR, read-out: Induction of FOXO3-regulated genes: SOD2 normalized fold-change): 0.76; fold induction at 10 µM (FOXO3; 10 μM, 24 hrs, WI-38 cells, qPCR, normalized to B2M, n = 4, read-out: GADD45A expression, normalized fold change (FOXO3-regulated gene)): 0.6; fold induction at 10 µM (FOXO3; fold change, qPCR, WI-38 cells, 10 μM, 24 hrs, read-out: Summary of effects on FOXO3-regulated genes: GADD45A): 0.6; Summary of effects on FOXO3-regulated genes: SOD2 (FOXO3; fold change, qPCR, WI-38 cells, 10 μM, 24 hrs): SOD2 0.76, |
| O=[N+]([O-])c1ccccc1S(=O)(=O)Nc1cccc2cccnc12 [Gr-3A] | YES | 1.93 | 1.64 | 1 | 1 | 1 | 0 | 0.87 | 0.969 | 1.4 | 1.18 | 0.87 | 0.871 | 1.48 | 0.754 | 0 | 0 | 0 | 1 | 1 | H2O2- & CdCl2-resistant (WI-38 cells): YES; CdCl2-resistant (WI-38 cells; WI-38 cells, 10 μM): YES; H2O2- & CdCl2-resistant (WI-38 cells; [4]): YES; Assay 4: H2O2- & Cd-resistant (WI-38 cells): YES; Assay 2: Cadmium-resistant (WI-38 cells): YES; fold induction at 10 µM (FOXO3; [19]): 0.83; fold induction at 10 µM (FOXO3; [6]): 0.81; fold induction at 10 µM (FOXO3; [8]): 1.21; fold induction at 10 µM (FOXO3; 24 h, Assay 10(m), at 10 uM, qPCR, read-out: Induction of FOXO3-regulated genes: TXNIP normalized fold-change): 0.64; fold induction at 10 µM (FOXO3; [10]): 1.18; fold induction at 10 µM (FOXO3; 10 μM, 24 hrs, WI-38 cells, qPCR, normalized to B2M, n = 4, read-out: TXNIP expression, normalized fold change (FOXO3-regulated gene)): 0.75; fold induction at 10 µM (FOXO3; [15]): 1.18; fold induction at 10 µM (FOXO3; fold change, qPCR, WI-38 cells, 10 μM, 24 hrs, read-out: Summary of effects on FOXO3-regulated genes: TXNIP): 0.75 |
| Cc1ccc(S(=O)(=O)Nc2cccc3cccnc23)cc1 [Gr-3B] | – | 2.1 | 2.88 | 0 | 0 | 0 | 0 | – | 1.12 | 1.16 | 1.07 | – | 1.11 | 1.14 | 1.06 | 0 | 0 | 0 | 0 | 0 | – |
| Nc1ccccc1S(=O)(=O)Nc1cccc2cccnc12 [Gr-3C] | – | 0.06 | 0.4 | 0 | 0 | 0 | 0 | 0.87 | 0.985 | 1.16 | 1.09 | 0.87 | 0.868 | 1.2 | 1.03 | 0 | 0 | 0 | 2 | 0 | fold induction at 10 µM (FOXO3; [6]): 0.79 |
| COc1ccc(C(=O)/C=C/c2ccc(F)cc2)c(OC)c1 [Gr-4A] | YES | 1.98 | 1.66 | 1 | 1 | 1 | 0 | 1.26 | 1.2 | 0.981 | 1.12 | 1.26 | 1.26 | 0.98 | 0.819 | 0 | 0 | 0 | – | 1 | H2O2- & CdCl2-resistant (WI-38 cells): YES; CdCl2-resistant (WI-38 cells; WI-38 cells, 10 μM): YES; H2O2- & CdCl2-resistant (WI-38 cells; [4]): YES; Assay 4: H2O2- & Cd-resistant (WI-38 cells): YES; Assay 2: Cadmium-resistant (WI-38 cells): YES; Induction of at least two of five FOXO3-regulated genes (SOD2, GADD45A, CAT, DDB1, TXNIP) (FOXO3; 10 μM, 24 hrs, WI-38): significant induction; also recorded: significant, induction; fold induction at 10 µM (FOXO3; [19]): 1.26; fold induction at 10 µM (FOXO3; [6]): 1.2; fold induction at 10 µM (FOXO3; 10 μM, 24 hrs, WI-38 cells, qPCR, normalized to B2M, n = 4, read-out: DDB1 expression, normalized fold change (FOXO3-regulated gene)): 1.2; fold induction at 10 µM (FOXO3; fold change, qPCR, WI-38 cells, 10 μM, 24 hrs, read-out: Summary of effects on FOXO3-regulated genes: DDB1): 1.2; S = Sum of Negative scores ([1]; sum of columns Q and R): 0 |
